The record followed here is patent US20190002436A1, “RESPIRATORY SYNCYTIAL VIRUS INHIBITORS” (MEDIVIR AB, priority 2015, published 2019).

The subject of this assay is RSV (Long). Briefly: RSV cytopathic effect (CPE)-based viral replication assay. In kind it is cell-based, respiratory syncytial virus (RSV). The conditions noted are these: HEp-2 cells infected with RSV Long at MOI 0.015, 3 days at 37° C., cell viability by CellTiter-Glo luminescence, read-out: EC50 (nm). The gist of the method:
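HEp-2 cells, 2,500 per well in DMEM with 2% heat-inactivated FBS, treated with 10-point compound dilutions and infected with RSV Long at MOI 0.015. After 3 days at 37 °C, 5% CO2, viability read by CellTiter-Glo luminescence; EC50 derived from CPE data.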
In general terms: Cytopathic effects are the visible damage that an infection or toxin causes in cultured cells.

Where [1] appears, read: human respiratory syncytial virus, HEp-2, 72 h.

Like-named read-outs stand apart in the source and are kept apart here.

What is called EC50 is the concentration at which the effect is half-maximal. With `CN(C)C1(C(=O)N2CC3(C2)C(=O)N(Cc2ncc4ccccc4c2-c2ccc(C(N)=O)nc2)c2ccccc23)CC1` [Example 113b, 5-(3-((1-(1-(Dimethylamino)cyclopropanecarbonyl)-2′-oxospiro[azetidine-3,3′-indolin]-1′-yl)methyl)isoquinolin-4-yl)picolinamide], the EC50 under setting [1] worked out at 17 nM.

With `CS(=O)(=O)Nc1ccc(-c2c(CN3C(=O)C4(CN(C(=O)C5(N)CC5)C4)c4ccccc43)ncc3ccccc23)cc1` [Example 114c, N-(4-(3-((1-(1-aminocyclopropanecarbonyl)-2′-oxospiro[azetidine-3,3′-indolin]-1′-yl)methyl)isoquinolin-4-yl)phenyl)methanesulfonamide], the EC50 under setting [1] stood at 5.5 nM.

`CNC1(C(=O)N2CC3(C2)C(=O)N(Cc2ncc4ccccc4c2-c2ccc(C(N)=O)nc2)c2ccccc23)CC1` [Example 115c, 5-(3-((1-(1-(methylamino)cyclopropanecarbonyl)-2′-oxospiro[azetidine-3,3′-indolin]-1′-yl)methyl)isoquinolin-4-yl)picolinamide]: under setting [1], the EC50 is 15 nM.

As for `NC(=O)N1CC2(C1)C(=O)N(Cc1ncc3ccccc3c1-c1ccc(S(N)(=O)=O)cc1)c1ccccc12` [Example 116b, 2′-oxo-1′-((4-(4-sulfamoylphenyl)isoquinolin-3-yl)methyl)spiro[azetidine-3,3′-indoline]-1-carboxamide], the half-maximal effective concentration (EC50) under setting [1] was found to be 1.3 nM.

For `CS(=O)(=O)Nc1ccc(-c2c(CN3C(=O)C4(CN(C(N)=O)C4)c4ccccc43)ncc3ccccc23)cc1` [Example 117, 1′-((4-(4-(methylsulfonamido)phenyl)isoquinolin-3-yl)methyl)-2′-oxospiro[azetidine-3,3′-indoline]-1-carboxamide], the half-maximal effective concentration (EC50) under setting [1] was determined as 0.75 nM.

In the case of `CC(C)(O)C(=O)N1CC2(C1)C(=O)N(Cc1ncc3ccccc3c1-c1cccnc1)c1ccccc12` [Example 118, 1-(2-hydroxy-2-methylpropanoyl)-1′-((4-(pyridin-3-yl)isoquinolin-3-yl)methyl)spiro[azetidine-3,3′-indolin]-2′-one], the EC50 under setting [1] was 3.8 nM.

Take `CN(C)C(=O)c1ccc(-c2c(CN3C(=O)C4(CCN(C(=O)C5(N(C)C)CC5)CC4)c4ccncc43)ncc3ccccc23)cn1` [Example 119b, 5-(3-((1-(1-(dimethylamino)cyclopropanecarbonyl)-2′-oxospiro[piperidine-4,3′-pyrrolo[2,3-c]pyridin]-1′(2′H)-yl)methyl)isoquinolin-4-yl)-N,N-dimethylpicolinamide]: the EC50 under setting [1] was 2.8 nM.

`CN(C)C(=O)c1ccc(-c2c(CN3C(=O)C4(CCN(C(=O)C5(N)CC5)CC4)c4ccncc43)ncc3ccccc23)cn1` [Example 120, 5-(3-((1-(1-aminocyclopropanecarbonyl)-2′-oxospiro[piperidine-4,3′-pyrrolo[2,3-c]pyridin]-1′(2′H)-yl)methyl)isoquinolin-4-yl)-N,N-dimethylpicolinamide]: under setting [1], the concentration giving a half-maximal response (EC50) came out at 4.7 nM.

As for `CN(C)C(=O)c1ccc(-c2c(CN3C(=O)C4(CN(C(=O)C5(N)CC5)C4)c4ccccc43)ncc3ccccc23)cn1` [Example 121b, 5-(3-((1-(1-Aminocyclopropanecarbonyl)-2′-oxospiro[azetidine-3,3′-indolin]-1′-yl)methyl)isoquinolin-4-yl)-N,N-dimethylpicolinamide], the EC50 under setting [1] stood at 2.4 nM.

As to `CNC1(C(=O)N2CCC3(CC2)C(=O)N(Cc2ncc4ccccc4c2-c2ccc(C(=O)N(C)C)nc2)c2cnccc23)CC1` [Example 122, N,N-dimethyl-5-(3-((1-(1-(methylamino)cyclopropanecarbonyl)-2′-oxospiro[piperidine-4,3′-pyrrolo[2,3-c]pyridin]-1′(2′H)-yl)methyl)isoquinolin-4-yl)picolinamide], the EC50 under setting [1] was 8.5 nM.

Turning to `CNC1(C(=O)N2CC3(C2)C(=O)N(Cc2ncc4ccccc4c2-c2ccc(S(N)(=O)=O)nc2)c2ccccc23)CC1` [Example 123b, 5-(3-((1-(1-(methylamino)cyclopropanecarbonyl)-2′-oxospiro[azetidine-3,3′-indolin]-1′-yl)methyl)isoquinolin-4-yl)pyridine-2-sulfonamide], the EC50 under setting [1] was determined as 15 nM.

Consider `NC1(C(=O)N2CC3(C2)C(=O)N(Cc2ncc4ccccc4c2-c2ccc(S(N)(=O)=O)nc2)c2ccccc23)CC1` [Example 124, 5-(3-((1-(1-Aminocyclopropanecarbonyl)-2′-oxospiro[azetidine-3,3′-indolin]-1′-yl)methyl)isoquinolin-4-yl)pyridine-2-sulfonamide], for which, under setting [1], the EC50 was found to be 9.8 nM.

As for `NC1(C(=O)N2CC3(C2)C(=O)N(Cc2ncc4ccccc4c2-c2ccc(S(N)(=O)=O)cc2)c2ccccc23)CC1` [Example 125, 4-(3-((1-(1-aminocyclopropanecarbonyl)-2′-oxospiro[azetidine-3,3′-indolin]-1′-yl)methyl)isoquinolin-4-yl)benzenesulfonamide], under setting [1], the EC50 was determined as 6 nM.

With `O=c1n(Cc2ncc3ccccc3c2COCC(F)(F)F)c2cnccc2n1C1CC1` [Example 127, 1-Cyclopropyl-3-((4-((2,2,2-trifluoroethoxy)methyl)isoquinolin-3-yl)methyl)-1H-imidazo[4,5-c]pyridin-2(3H)-one], under setting [1], the EC50 worked out at 690 nM.

`O=C(N1CC2(C1)C(=O)N(Cc1ncc3ccccc3c1-c1cccnc1)c1ccccc12)C(F)(F)F` [Example 128, 1′-((4-(Pyridin-3-yl)isoquinolin-3-yl)methyl)-1-(2,2,2-trifluoroacetyl)spiro[azetidine-3,3′-indolin]-2′-one]: under setting [1], the concentration giving a half-maximal response (EC50) amounted to 20 nM.

With `O=C(N1CCC2(CC1)C(=O)N(Cc1ncc3ccccc3c1-c1cccnc1)c1cnccc12)C(F)(F)F` [Example 129b, 1′-((4-(Pyridin-3-yl)isoquinolin-3-yl)methyl)-1-(2,2,2-trifluoroacetyl)spiro[piperidine-4,3′-pyrrolo[2,3-c]pyridin]-2′(1′H)-one], the EC50 under setting [1] worked out at 5.2 nM.

Take `Cc1noc(C)c1-c1c(CN2C(=O)C3(CCN(C(=O)C4(N)CC4)CC3)c3ccncc32)ncc2ccccc12` [Example 130c, 1-(1-Aminocyclopropanecarbonyl)-1′-((4-(3,5-dimethylisoxazol-4-yl)isoquinolin-3-yl)methyl)spiro[piperidine-4,3′-pyrrolo[2,3-c]pyridin]-2′(1′H)-one]: the EC50 under setting [1] is 1000 nM.

As to `NC(=O)N1CC2(C1)C(=O)N(Cc1ncc3ccccc3c1-c1cccnc1)c1ccccc12` [Example 131, 2′-Oxo-1′-((4-(pyridin-3-yl)isoquinolin-3-yl)methyl)spiro[azetidine-3,3′-indoline]-1-carboxamide], the EC50 under setting [1] came out at 1.6 nM.

Regarding `CS(=O)(=O)Nc1ccc(-c2c(CN3C(=O)C4(CN(C(=O)C5(N)CC5)C4)c4ccccc43)ncc3ccccc23)cc1` [Example 132b, N-(4-(3-((1-(1-aminocyclopropanecarbonyl)-2′-oxospiro[azetidine-3,3′-indolin]-1′-yl)methyl)isoquinolin-4-yl)phenyl)methanesulfonamide], the EC50 worked out at 5.1 nM.

As to `CNC(=O)O[C@H]1C[C@@]2(C1)C(=O)N(Cc1ncc3ccccc3c1-c1ccc(C#N)nc1)c1ccccc12` [Example 133, (1R,3R)-1′-((4-(6-cyanopyridin-3-yl)isoquinolin-3-yl)methyl)-2′-oxospiro[cyclobutane-1,3′-indolin]-3-yl methylcarbamate], under setting [1], the EC50 amounted to 3.4 nM.

Turning to `COC(=O)N1CC2(C1)C(=O)N(Cc1ncc3ccccc3c1-c1ccc(NS(C)(=O)=O)nc1)c1ccccc12` [Example 134b, Methyl 1′-((4-(6-(methylsulfonamido)pyridin-3-yl)isoquinolin-3-yl)methyl)-2′-oxospiro[azetidine-3,3′-indoline]-1-carboxylate], the EC50 under setting [1] turned out to be 0.55 nM.

For `NC(=O)N1CCC2(CC1)C(=O)N(Cc1ncc3ccccc3c1-c1cccnc1)c1cnccc12` [Example 135b, 2′-oxo-1′-((4-(pyridin-3-yl)isoquinolin-3-yl)methyl)-1′,2′-dihydrospiro[piperidine-4,3′-pyrrolo[2,3-c]pyridine]-1-carboxamide], the EC50 under setting [1] was 2 nM.

For the molecule `CS(=O)(=O)N1CCC2(CC1)C(=O)N(Cc1ncc3ccccc3c1-c1cccnc1)c1cnccc12` [Example 136, 1-(methylsulfonyl)-1′-((4-(pyridin-3-yl)isoquinolin-3-yl)methyl)spiro[piperidine-4,3′-pyrrolo[2,3-c]pyridin]-2′(1′H)-one], the EC50 under setting [1] came out at 0.8 nM.

As to `NC1(C(=O)N2CCC3(CC2)C(=O)N(Cc2ncc4ccccc4c2-c2cccnc2)c2cnccc23)CC1` [Example 137], the EC50 under setting [1] came out at 5.4 nM.

On to `CC(C)(O)C(=O)N1CCC2(CC1)C(=O)N(Cc1ncc3ccccc3c1-c1cccnc1)c1cnccc12` [Example 138, 1-(2-hydroxy-2-methylpropanoyl)-1′-((4-(pyridin-3-yl)isoquinolin-3-yl)methyl)spiro[piperidine-4,3′-pyrrolo[2,3-c]pyridin]-2′(1′H)-one], for which the EC50 under setting [1] is 3.6 nM.

With `O=C1N(Cc2ncc3ccccc3c2-c2cccnc2)c2cnccc2C12CCN(S(=O)(=O)CC(F)(F)F)CC2` [Example 139, 1′-((4-(pyridin-3-yl)isoquinolin-3-yl)methyl)-1-((2,2,2-trifluoroethyl)sulfonyl)spiro[piperidine-4,3′-pyrrolo[2,3-c]pyridin]-2′(1′H)-one], the EC50 under setting [1] was found to be 7.2 nM.

Take `O=C(C1CCNCC1)N1CCC2(CC1)C(=O)N(Cc1ncc3ccccc3c1-c1cccnc1)c1cnccc12` [Example 140, 1-(piperidine-4-carbonyl)-1′-((4-(pyridin-3-yl)isoquinolin-3-yl)methyl)spiro[piperidine-4,3′-pyrrolo[2,3-c]pyridin]-2′(1′H)-one]: the EC50 under setting [1] stood at 3.4 nM.

As for `NCCC(=O)N1CCC2(CC1)C(=O)N(Cc1ncc3ccccc3c1-c1cccnc1)c1cnccc12` [Example 141, 1-(3-aminopropanoyl)-1′-((4-(pyridin-3-yl)isoquinolin-3-yl)methyl)spiro[piperidine-4,3′-pyrrolo[2,3-c]pyridin]-2′(1′H)-one], under setting [1], the EC50 was found to be 11 nM.
